“And” between values parts separate entries of the source, which are not always exact repeats. Equal values may be shown once.
Assays:
[1] = Metabolic stability in liver microsomes, human; assay type: in vitro ADME; conditions: for % Residual in liver microsome: 0.5 mg/mL, 2 μmol/L, 37°C, mean of duplicates; for % Residual in liver microsome Individual value: duplicates
Experimental: (§1) Liver microsomes were prepared from ferrets, rats, dogs, and monkeys, as previously described. ^28 Human liver microsomes were obtained from Sekisui‐XenoTech, LLC and pooled (n = 15). Metabolic stability of the compounds in liver microsomes was tested in duplicate. Oseltamivir and cefcapene pivoxil were used as reference compounds. Liver microsomes at 0.5 mg/mL concentration (final volume of 0.2 mL) were incubated in Tris‐HCl buffer (pH 7.4), containing 50 mmol/L Tris‐HCl, 150 mmol/L KCl, 10 mmol/L MgCl2. The hydrolysis reaction was initiated by applying the test compound solution (final concentration 2 μmol/L). After incubation for 10, 20, and 30 minutes at 37°C, the hydrolysis was terminated by the addition of twofold volume of ice‐cold acetonitrile/methanol (1:1, v/v). Samples were centrifuged at 3000 rpm for 10 minutes prior to LC‐MS/MS analysis of compounds in the supernatants.

[2] = Metabolic stability test, control (microsome free); assay type: in vitro ADME; conditions: microsome free; for % Residual, Control (Microsome free): 2 μmol/L, 37°C, mean of duplicates; for % Residual Individual value, Control (Microsome free): duplicates
Experimental: as §1

[3] = tested on: Influenza A virus A/Kadoma/3/2006 (H1N1); assay: Experiment 1: infected ferrets, treatment starting at Day 1 p.i. (virus titer in nasal washes, body temperature); assay type: in vivo, ferret; conditions: for reduction of virus titers by Day 2: treatment at Day 1 p.i.
[4] = tested on: Influenza A virus A/Kadoma/3/2006 (H1N1); assay: Experiment 2: infected ferrets, treatment starting at Day 2 p.i. (virus titer in nasal washes, body temperature); conditions: treatment from Day 2 p.i.; BXM 10 mg/kg twice daily 1 day

Which results are given for `COC(=O)OCOc1c2n(ccc1=O)N([C@@H]1c3ccccc3SCc3c1ccc(F)c3F)[C@@H]1COCCN1C2=O` [BXM, Baloxavir marboxil]?
% Residual in liver microsome ([1]; 10 min): 8.2%; % Residual in liver microsome ([1]; 20 min): 0.3%; % Residual in liver microsome ([1]; 30 min): 0.0%; % Residual in liver microsome Individual value ([1]; 10 minutes): 8.4% and 8.0%; % Residual in liver microsome Individual value ([1]; 20 minutes): 0.3% and 0.2%; % Residual in liver microsome Individual value ([1]; 30 minutes): 0.0%; % Residual, Control (Microsome free) ([2]; 10 min): 81.3%; % Residual, Control (Microsome free) ([2]; 20 min): 81.7%; % Residual, Control (Microsome free) ([2]; 30 min): 92.1%; % Residual Individual value, Control (Microsome free) ([2]; 10 minutes): 72.2% and 90.3%; % Residual Individual value, Control (Microsome free) ([2]; 20 minutes): 81.2% and 82.1%; % Residual Individual value, Control (Microsome free) ([2]; 30 minutes): 86.1% and 98.1%; reduction of virus titers by Day 2 ([3]; BXM 10 mg/kg twice daily): ≥ 3 log10 of the 50% tissue culture infective doses; reduction of virus titers by Day 2 ([3]; BXM 30 mg/kg twice daily): ≥ 3 log10 of the 50% tissue culture infective doses; virus titer in nasal washes ([3]; Day 2 p.i., BXM 30 mg/kg twice daily for 1 day from Day 1 p.i., undetectable level): < 0.5 log10 TCID50/mL; body temperature changes over time (in words) [4]: a small but significant effect was observed with BXM compared with vehicle on Day 2

Source: publication PMC7578299, “The antiviral effects of baloxavir marboxil against influenza A virus infection in ferrets” (Influenza and Other Respiratory Viruses, 2020)
